From PMC6891756, “Synthesis and Biological Evaluation of Novel Aminochalcones as Potential Anticancer and Antimicrobial Agents” (Molecules, 2019)
In brackets after ≈: the same amount, converted by molar mass.

Assays:
Trichophyton rubrum = system: Trichophyton rubrum; set-up: method as in doi:10.1007/s10600-018-2281-7; conditions: cited from earlier work
[1] = system: Alternaria alternata CBS1526; assay: MIC evaluation (broth method), A. alternata; format: cell-based; conditions: Alternaria alternata, CBS1526, 48–72 h, read-out: Minimal inhibitory concentration A. alternata
Protocol: (§1) Sterile 96-well microtiter plates (Sarstedt) with nutrient broth (for bacteria) (Biocorp) or YM medium (for yeast and filamentous fungi) were inoculated with a standardized cell suspension of bacteria and yeast or fungal spores of 10^5 cell·mL^−1, and supplemented with aminochalcones dissolved in DMSO. […] All analysis were conducted in triplicates. The plates were incubated at 30 °C (bacteria and yeast) or 25 °C (filamentous fungi) for 48–72 h. The results were measured with the Spark® Multimode Microplate Reader (Tecan, Männedorf, Switzerland) at a 560 nm wavelength. The minimal inhibitory concentration was defined as the lowest concentration of a tested compound that completely restricted the growth of the microorganism. In order to verify the obtained results, microbial cultures subjected to each concentration of aminochalcone were inoculated onto nutrient agar or YM plates and incubated as described above. The lack of growth on agar plate was a confirmation of the MIC of the tested compound. The resulting MIC values were compared with the reference substances: oxytetracycline (against bacteria), cycloheximide (against yeast) and nystatin (against fungi) (Sigma Aldrich).

[2] = system: Staphylococcus aureus DSM799; assay: MIC evaluation (broth method), S. aureus; format: cell-based; conditions: 48–72 h, read-out: Minimal inhibitory concentration S. aureus
Protocol: as §1

LoVo = assay: SRB antiproliferative assay, LoVo; format: cell-based, human; conditions: Homo sapiens, LoVo, 48 h, 1–100 µg·mL^−1, ND = not detected in the tested concentration range
Protocol: (§2) Anticancer activity was evaluated using the sulforhodamine B assay (SRB) on four different human colon cancer cell lines: HT-29, LS180, LoVo and LoVo/DX and green monkey kidney fibroblasts COS7 (ATCC, Manassas, VA, USA). Cell lines HT-29 and COS7 were cultured in α-MEM medium (IIET PAS, Wrocław, Poland), LS180 in OptiMEM medium (IIET PAS), LoVo and LoVo/DX in mixture of α-MEM and OptiMEM medium (1:1 (v:v)). Each culture medium was supplemented with 10% fetal bovine serum, 2 mM glutamine, 100 μg·mL^−1 penicillin, 100 μg·mL^−1 streptomycin and 0.25 μg·mL^−1 amphotericin (all supplements purchased from Gibco (Paisley, UK). Cells were incubated at 37 °C, 5% CO2 in HeraCELL 150i incubator (Thermo Fisher Scientific, Waltham, MA, USA).
(§3) For the SRB assay, cells were seeded onto 96-well plates (Sarstedt, Nümbrecht, Germany) at a density of 5·10^3/well and cultured overnight as described above. Then, the growth medium was gently removed and replaced with fresh medium, supplemented with aminochalcone derivatives in the concentration ranging from 1 µg·mL^−1 to 100 µg·mL^−1. All stock solutions were prepared in DMSO at a concentration of 10 mg·mL^−1. Cells were incubated for 48 h and then the SRB assay was performed as described previously. Each experiment was performed in quadruplicate. The final results were reported as the IC50 values calculated for three independent experiments. Cisplatin (Acros Organics, Waltham, MA, USA) and doxorubicin (Fisher BioReagents, Waltham, MA, USA) were used as positive controls of the test.

Candida albicans DSM1386 [3] = assay: MIC evaluation (broth method), C. albicans; format: cell-based; conditions: DSM1386, broth method, 48–72 h, read-out: Minimal inhibitory concentration C. albicans
Protocol: as §1

LoVo/DX = assay: SRB antiproliferative assay, LoVo/DX; format: cell-based, human; conditions: Homo sapiens, LoVo/DX, 48 h, 1–100 µg·mL^−1, ND = not detected in the tested concentration range
Protocol: as §2, §3

[4] = system: Staphylococcus aureus DSM799; assay: Microbial growth curve screening, S. aureus; format: cell-based; conditions: 0.1% (w/v); for ∆OD S. aureus: OD at 560 nm, control 1.67
Protocol: (§4) The antimicrobial screening tests were performed on two strains of bacteria: E. coli ATCC10536 and S. aureus DSM799, strain of yeast C. albicans DSM1386 and three strains of fungi: F. linii KB-F1, A. alternata CBS1526 and A. niger DSM1957. All microorganisms were obtained from the collection of the Faculty of Biotechnology and Food Microbiology, Wrocław University of Environmental and Life Sciences. The bacteria were cultured in nutrient broth (Biocorp, Warsaw, Poland), yeast and fungi in YM medium (3 g yeast extract, 3 g malt extract, 5 g bacteriological peptone and 10 g of glucose dissolved in 1 L of distilled water). The tests were carried out in 100-well microtiter plates. To each well 280 μL of culture medium, 10 μL of microorganism suspension and 10 μL of aminochalcone (1–18) dissolved in dimethyl sulfoxide (3% (w/v)) were added. The final concentration of the tested compound (1–18) was 0.1% (w/v). Each experiment were performed in 3 replications. The optical density of the cell suspension was measured on Bioscreen C (Automated Growth Curve Analysis System Lab System, Vantaa, Finland) at 560 nm automatically, at regular intervals of 30 min for 2–3 days. Cell cultures were maintained at 28 °C on a continuous shaker. To prepare the growth curves for each strain, the mean values of the absorbance in a function of time were used. The resulting antimicrobial activity was expressed as the increase of optical density (ΔOD) and was compared to that of the control cultures in the medium supplemented with dimethyl sulfoxide and also with reference substances: oxytetracycline (against bacteria), cycloheximide (against yeast) and nystatin (against fungi) (Sigma Aldrich).

[5] = system: Escherichia coli ATCC10536; assay: Microbial growth curve screening, E. coli; format: cell-based; conditions: 0.1% (w/v), OD at 560 nm, control 1.61
Protocol: as §4

Fusarium linii KB-F1 [6] = assay: Microbial growth curve screening, F. linii; format: cell-based; conditions: 0.1% (w/v); for ∆OD F. linii: OD at 560 nm, control 1.95; for Lag-phase F. linii: control 13.5 h
Protocol: as §4

HT-29 = assay: SRB antiproliferative assay, HT-29; format: cell-based, human; conditions: Homo sapiens, HT-29; SRB, 48 h, 1–100 µg·mL^−1; ND = not detected in the tested concentration range
Protocol: as §2, §3

LS180 = assay: SRB antiproliferative assay, LS180; format: cell-based, human; conditions: Homo sapiens, LS180, 48 h, 1–100 µg·mL^−1, ND = not detected in the tested concentration range
Protocol: as §2, §3

[7] = system: Aspergillus niger DSM1957; assay: MIC evaluation (broth method), A. niger; format: cell-based; conditions: Aspergillus niger, DSM1957, 48–72 h, read-out: Minimal inhibitory concentration A. niger
Protocol: as §1

[8] = system: Escherichia coli ATCC10536; assay: MIC evaluation (broth method), E. coli; format: cell-based; conditions: 48–72 h, read-out: Minimal inhibitory concentration E. coli
Protocol: as §1

[9] = SRB assay, normal fibroblasts COS7; format: cell-based, green monkey; conditions: green monkey, COS7 kidney fibroblasts (normal cell line), ND = not detected in the tested concentration range
Protocol: as §2, §3

Candida albicans DSM1386 [10] = assay: Microbial growth curve screening, C. albicans; format: cell-based; conditions: 0.1% (w/v); for ∆OD C. albicans: OD at 560 nm, control 1.58; for Lag-phase C. albicans: control 3.0 h
Protocol: as §4

[11] = system: Aspergillus niger DSM1957; assay: Microbial growth curve screening, A. niger; format: cell-based; conditions: 0.1% (w/v)
Protocol: as §4

[12] = system: Alternaria alternata CBS1526; assay: Microbial growth curve screening, A. alternata; format: cell-based; conditions: 0.1% (w/v)
Protocol: as §4

Fusarium linii KB-F1 [13] = assay: MIC evaluation (broth method), F. linii; format: cell-based; conditions: Fusarium, KBF1, 48–72 h, read-out: Minimal inhibitory concentration F. linii
Protocol: as §1

| SMILES | MIC80 Trichophyton rubrum (literature) (Trichophyton rubrum) [µg/mL] | MIC [1] [µg/mL] | MIC [2] [µg/mL] | IC50 (LoVo) [µg/mL] | IC50 (LoVo/DX) [µg/mL] | ∆OD S. aureus [4] | ∆OD E. coli [5] | melting point [°C] | ∆OD F. linii (Fusarium linii KB-F1 [6]) | Lag-phase F. linii (Fusarium linii KB-F1 [6]) [h] | IC50 (HT-29) [µg/mL] | IC50 (LS180) [µg/mL] | MIC [7] [µg/mL] | MIC [8] [µg/mL] | IC50 at 48 h [9] [µg/mL] | ∆OD C. albicans (Candida albicans DSM1386 [10]) | Lag-phase C. albicans (Candida albicans DSM1386 [10]) [h] | other results |
| --- | --- | --- | --- | --- | --- | --- | --- | --- | --- | --- | --- | --- | --- | --- | --- | --- | --- | --- |
| Nc1ccccc1C(=O)/C=C/c1cccc([N+](=O)[O-])c1 [2′-amino-3-nitro-chalcone] | 0.5 (≈ 1.86 µM) | – | – | – | – | – | – | – | – | – | – | – | – | – | – | – | – | – |
| Nc1ccccc1C(=O)/C=C/c1ccc(C(=O)O)cc1 [Compound 7, 2′-Amino-4-carboxychalcone] | – | 0.5 (≈ 1.87 µM) | 0.125 (≈ 0.468 µM) | 7.68 ± 0.34 (≈ 28.7 µM) | 11.1 ± 0.44 (≈ 41.5 µM) | 0.0 | 0.0 | 188 to 191 | 0.37 | 26.0 | 4.26 ± 0.13 (≈ 15.9 µM) | 7.86 ± 0.35 (≈ 29.4 µM) | 0.125 (≈ 0.468 µM) | 0.125 (≈ 0.468 µM) | 7.78 ± 0.75 (≈ 29.1 µM) | – | – | MIC (Candida albicans DSM1386 [3]): 0.125 µg/mL (≈ 0.468 µM) |
| COc1cc(/C=C/C(=O)c2ccccc2N)ccc1OCc1ccccc1 [Compound 16, 2′-Amino-4-benzyloxy-3-methoxychalcone] | – | – | 0.5 (≈ 1.39 µM) | 5.77 ± 0.38 (≈ 16.1 µM) | 4.59 ± 0.21 (≈ 12.8 µM) | 0 | 0.0 | – | 0 | – | 4.85 ± 0.08 (≈ 13.5 µM) | 6.64 ± 0.29 (≈ 18.5 µM) | – | 0.5 (≈ 1.39 µM) | 9.02 ± 0.17 (≈ 25.1 µM) | 0.66 | 8.5 | ∆OD A. niger ([11]; OD at 560 nm, control 2.14): 0.41; Lag-phase A. niger ([11]; control 11.0 h): 40.5 h; ∆OD A. alternata ([12]; OD at 560 nm, control 1.86): 0.64; Lag-phase A. alternata ([12]; control 16.5 h): 8.5 h; MIC (Fusarium linii KB-F1 [13]): 0.5 µg/mL (≈ 1.39 µM) |
| OC(Cn1cncn1)(Cn1cncn1)c1ccc(F)cc1F [fluconazole] | 0.25 (≈ 0.816 µM) | – | – | – | – | – | – | – | – | – | – | – | – | – | – | – | – | – |
| COc1cc(/C=C/C(=O)c2cccc(N)c2)ccc1OCc1ccccc1 [Compound 17, 3′-Amino-4-benzyloxy-3-methoxychalcone] | – | 1 (≈ 2.78 µM) | – | 1.71 ± 0.13 (≈ 4.76 µM) | 1.77 ± 0.09 (≈ 4.92 µM) | 0.36 | 0.0 | 38 | 0.24 | 11.0 | 2.9 ± 0.27 (≈ 8.07 µM) | 3.76 ± 0.38 (≈ 10.5 µM) | 1 (≈ 2.78 µM) | 0.125 (≈ 0.348 µM) | 3.45 ± 0.22 (≈ 9.6 µM) | 0.55 | 9.0 | Lag-phase S. aureus ([4]; control 2.5 h): 33.5 h |
